Series [1] relates to P. aeruginosa. In words: MIC90, broth microdilution, panel of Gram negative clinical isolates. Format: cell-based, Pseudomonas aeruginosa. To be noted: 100 strains. The protocol: (§1) To evaluate the potency and spectrum of compounds of Formula (I), (i.e., Compounds designated 5 and 6), a study was conducted that put together a panel of 455 Gram negative strains, which included multi-drug resistant clinical isolates selected from various surveillance programs. Table 3A lists the strains that were included in the study and the activity of Compound 5, Compound 6, and colistin (polymyxin E, abbreviated PME). Strains with acquired resistance to colistin and/or carbapenems and/or broad spectrum cephalosporins were pre-selected and included in all organism groups evaluated.
(§2) MIC testing was performed according to Clinical and Laboratory Standards Institute (CLSI) M7-A7 (2006) broth microdilution methods. Unless otherwise indicated, MIC values are provided in units of micrograms per milliliter.
(§3) One day prior to testing, individual colonies were isolated by streaking onto rich, non-selective Tryptic Soy agar with 5% lysed sheeps blood (TSAB) with incubation at 35-37° C. for 18-24 hours.
(§4) Cultures were prepared by touching 3-5 colonies into 3 mL of Cation adjusted Mueller Hinton Broth (caMHB) in a 14 mL tube (CaMHB was prepared and sterilized according to manufacturer's specifications). Cultures were grown at 37° C. 200 rpm for approximately four hours prior to density adjustment for addition to the MIC assay.
(§5) OD600 of growing cultures was measured and adjusted to approximately 10^5 colony forming units per mL (CFU/mL) in caMHB for MIC inoculation (approximately OD600 0.001).
(§6) Diluted cultures were used to inoculate 50 μL per well in broth microdilution assays (final volume 100 μl per well; compounds were prepared in two-fold dilutions).
(§7) Plates were incubated 16-20 hrs at 37° C., with shaking at 200 rpm.
(§8) OD600 was determined for all wells. Growth was defined as OD600>0.1. MICs were defined as the lowest concentration producing no visible turbidity (OD600<0.1).

The next series has as its system S. maltophilia. Described as above. To be noted: 25 strains. The series is classed as cell-based, Stenotrophomonas maltophilia. Here is the method: as §1, §2, §3, §4, §5, §6, §7, §8
For another series, the system named is E. coli. The description is as above. The series is classed as cell-based, Escherichia coli. To be noted: 80 strains; some strains multi-drug resistant. The protocol:
as §1, §2, §3, §4, §5, §6, §7, §8

For the next series, the system named is K. pneumonia. Described as above. The series is classed as cell-based, Klebsiella pneumoniae. To be noted: 81 strains; some strains multi-drug resistant. The protocol:
as §1, §2, §3, §4, §5, §6, §7, §8

The test system of the next series is Acinetobacter spp. The series is described as above. Format: cell-based. Particulars: 81 strains. Here is the method: as §1, §2, §3, §4, §5, §6, §7, §8
In another series the test system is Citrobacter spp. The series is described as above. The series is classed as cell-based. Particulars: 20 strains; some strains multi-drug resistant. The protocol: as §1, §2, §3, §4, §5, §6, §7, §8
The test system of another series is Enterobacter. Described as above. The series is classed as cell-based. To be noted: 20 strains; some strains multi-drug resistant. The protocol: as §1, §2, §3, §4, §5, §6, §7, §8
Series [2] relates to Acinetobacter baumannii 1570. In words: MIC, broth microdilution. The series is classed as cell-based. To be noted: for MIC against A. baumannii #1570: Table 8, range of repeated tests. Here is the method: as §2, §3, §4, §5, §6, §7, §8
A. baumannii #1570 were grown in cation adjusted Mueller Hinton Broth (caMHB) (catalog #B12322; Fisher Scientific, Pittsburgh, Pa.) at 37° C. MIC testing was performed according to Clinical and Laboratory Standards Institute [CLSI, formerly National Committee for Clinical Laboratory Standards (NCCLS), Wayne, Pa.] guidelines for broth microdilution.
(§9) MIC testing was performed according to CLSI (formerly NCCLS) guidelines for broth microdilution.

A further series has as its system P. aeruginosa #44. Briefly: MIC, broth microdilution. The series is classed as cell-based, Pseudomonas aeruginosa. To be noted: for MIC against P. aeruginosa #44: Table 5, range of repeated tests. The protocol: as §2, §3, §4, §5, §6, §7, §8
P. aeruginosa #44 or K. pneumoniae #21 were grown in cation adjusted Mueller Hinton Broth (caMHB) (catalog #B12322; Fisher Scientific, Pittsburgh, Pa.) at 37° C. MIC testing was performed according to Clinical and Laboratory Standards Institute [CLSI, formerly National Committee for Clinical Laboratory Standards (NCCLS), Wayne, Pa.] guidelines for broth microdilution.
as §9

In series [3] the test system is P. aeruginosa. In words: MIC, broth microdilution (Table 4). Format: cell-based, Pseudomonas aeruginosa. To be noted: for MIC P. aeruginosa: Table 4. Here is the method:
as §2, §3, §4, §5, §6, §7, §8

The test system of another series is cynomolgus monkeys. Briefly: Comparative 7 day repeat dose safety study, renal toxicity. The series is classed as in vivo, cynomolgus monkey. To be noted: for renal histologic findings: IV infusion; for nephrotoxicity compared with polymyxin B: equivalent antibacterial activity doses (75,000 to 112,500 IU/kg), FIG. 2. The protocol:
A comparative 7 day repeat dose safety study in cynomologous monkeys between polymyxin B and Compound 5 was performed.
Animals were 2.52 kg to 3.77 kg and were 4.2 to 5.7 years old. During acclimation, a chronic femoral intravenous catheter was implanted into all animals to permit continuous infusion. The femoral vein catheter was routed subcutaneously to exit through a prepared incision in the interscapular region. Animals were fitted with jackets connected to flexible stainless steel tethers that protected the catheters.
(§10) Monkeys were dosed twice or three times daily for seven days with control article (0.9% Sodium Chloride for Injection, USP), 25000 IU/kg Compound 5, 37500 IU/kg Compound 5, or 37500 IU/kg PMB (Alpharma, lot number A1411079). Each administration was given via a targeted 30-minute intravenous infusion.
(§11) The following parameters were evaluated: daily clinical observations and qualitative food consumption, body weight (twice prior to the first dosing and at necropsy), urinalysis, hematology, coagulation, serum chemistry, toxicokinetics, gross pathology, organ weights, and histopathology of the kidneys and injection sites, and of the liver and sciatic nerves of control and high dose groups. Animals were evaluated through Study Day 7 and then terminated.
FIG. 2 is a scatter plot showing nephrotoxicity data measured as a cumulative score based upon tubular degeneration, tubular regeneration, tubular dilatation, and tubular casts. Each category was scored on a basis from 0 to 4 based on the severity of each finding.
For comparison of Compound 5 and polymyxin B, the nephrotoxicity was measured as a cumulative score based upon tubular degeneration, tubular regeneration, tubular dilatation, and tubular casts. Each category was scored on a basis from 0 to 4 based on the severity of each finding and individual monkeys are represented in the FIG. 2.

A short description of series [4]: Pharmacokinetics/toxicokinetics in repeat-dose studies. Format: in vivo, cynomolgus monkey. Here is the method: as §10, §11
At higher dose levels, a slightly greater than dose-proportional response was evident in systemic exposure (AUC) and peak plasma concentrations (Cmax). The decrease in clearance at these higher doses may explain the non-linear systemic exposure to Compound 5.

Entries after “also recorded” stand apart in the source; their conditions may differ. Numbered stars: 1 amine (or outer) side, 2 acyl side, 3 side chain; on linkers, the order of the positions; unused ones are H or OH. Bridge positions count the residues as written; N and C are the ends. Square brackets hold non-standard residues; d marks the D form. Peptide text beside a SMILES is read from it. * marks the point of attachment. Octanoyl(6-Me) = CCC(C)CCCCC(=O)*; NH(2-ClPh) = Clc1ccccc1N*; Dab = NCC[CH](N)C(=O)O; CO = O=C([*:1])[*:2]

In the case of `CCC(C)CCCCC(=O)NC(CCN)C(=O)NC(C(=O)NC(CCN)C(=O)NC1CCNC(=O)C(C(C)O)NC(=O)C(CCN)NC(=O)C(CCN)NC(=O)C(CC(C)C)NC(=O)C(Cc2ccccc2)NC(=O)C(CCN)NC1=O)C(C)O` (stereo not drawn) [Polymyxin B, polymyxin B, reference compound] ({Octanoyl(6-Me)}-[Dab]T[Dab][Dab][Dab]FL[Dab][Dab]T; lactam 4-C; configuration not given here), the “MIC90 P. aeruginosa” value against P. aeruginosa [1] is 2 micrograms/mL. The “MIC90 S. maltophilia” value against S. maltophilia is listed as 8 micrograms/mL. In the series with E. coli, the “MIC90 E. coli” value stood at 2 micrograms/mL. The “MIC90 K. pneumonia” value in the series on K. pneumonia is reported as 2 micrograms/mL. Further, the “MIC90 Acinetobacter spp” value in the series with Acinetobacter spp is on record as 2 micrograms/mL. The “MIC90 Citrobacter spp.” value in the series on Citrobacter spp. was 1 micrograms/mL. The “MIC90 Enterobacter” value in the series with Enterobacter is over 64 micrograms/mL. Also, the “MIC against A. baumannii #1570” value in [2] is 1-2 micrograms/ml. Also, the “MIC against P. aeruginosa #44” value in the series with P. aeruginosa #44 was 1-2 micrograms/ml. Also, the “MIC P. aeruginosa” value with P. aeruginosa [3] came out at 2 micrograms/ml. Besides, in the series with cynomolgus monkeys (75,000 IU/kg/day, 7 days), the “serum creatinine and BUN concentrations” value is listed as “mild increases”; the renal histologic findings result is given as “renal tubular histology similar to findings from animals receiving 112,500 IU/kg/day of Compound 5”. Moreover, in the series with cynomolgus monkeys (112,500 IU/kg/day, 7 days), the “serum creatinine and blood urea nitrogen concentrations” value is on record as “elevations”; the renal histologic findings result is “involvement of a majority of cortical and some medullary tubules containing necrotic or degenerate cells”. The “maximal plasma concentrations (Cmax) relative to Compound 5” value in series [4] (greater, Day 1, 37,500 IU/kg) was “approximately 2 fold”. In addition, the “systemic exposure (AUC) relative to Compound 5” value in [4] (greater, same activity-normalized dose) is recorded as 2.5 fold. Further, the “systemic clearance relative to Compound 5” value in series [4] (less, Day 1) is 2 to 3 fold. Besides, in [4] (lower), the “volume of distribution relative to Compound 5” value is given as “approximately 2 fold”. The same compound gave a fraction unbound in the series “Serum protein binding” of about 0.44.
As for `CC(C)C[C@@H]1NC(=O)[C@@H](Cc2ccccc2)NC(=O)[C@H](CCN)NC(=O)[C@@H](NC(=O)[C@H](CCN)NC(=O)[C@@H](NC(=O)[C@H](CCN)NC(=O)Nc2ccccc2Cl)[C@@H](C)O)CCNC(=O)[C@H]([C@@H](C)O)NC(=O)[C@H](CCN)NC(=O)[C@H](CCN)NC1=O` [Compound 5, (S)-4-amino-N-((2S,3R)-1-((S)-4-amino-1-oxo-1-((3S,6S,9S,12S,15R,18S,21S)-6,9,18-tris(2-aminoethyl)-15-benzyl-3-((R)-1-hydroxyethyl)-12-isobutyl-2,5,8,11,14,17,20-heptaoxo-1,4,7,10,13,16,19-heptaazacyclotricosan-21-ylamino)butan-2-ylamino)-3-hydroxy-1-oxobutan-2-yl)-2-(3-(2-chlorophenyl)ureido)butanamide] ({NH(2-ClPh)-CO}-[Dab]T[Dab][Dab][Dab][dF]L[Dab][Dab]T; lactam 4-C), the “MIC90 P. aeruginosa” value in the series with P. aeruginosa [1] worked out at 2 micrograms/mL. For the same compound, the “MIC90 S. maltophilia” value against S. maltophilia is reported as over 16 micrograms/mL. Besides, the “MIC90 E. coli” value against E. coli came to 2 micrograms/mL. In the series on K. pneumonia, the “MIC90 K. pneumonia” value worked out at 4 micrograms/mL. In the series on Acinetobacter spp, the “MIC90 Acinetobacter spp” value came out at 4 micrograms/mL. Also, the “MIC90 Citrobacter spp.” value against Citrobacter spp. was 0.5 micrograms/mL. For the same compound, the “MIC90 Enterobacter” value against Enterobacter is listed as over 16 micrograms/mL. Also, the “MIC Acinetobacter baumannii 1570” value in [2] (Table 3B) stood at 4 micrograms/mL. Moreover, the “MIC against A. baumannii #1570” value in series [2] was 2-4 micrograms/ml. Moreover, in the series with P. aeruginosa #44 (Table 3B), the “MIC P. aeruginosa 44” value is given as 1 micrograms/mL. The “MIC against P. aeruginosa #44” value against P. aeruginosa #44 is listed as 1-2 micrograms/ml. In addition, the “activity against bacteria compared with polymyxin B” value in the series with P. aeruginosa [3] is on record as “as active or more active”. Also, the “MIC P. aeruginosa” value against P. aeruginosa [3] turned out to be 2 micrograms/ml. Besides, the renal histologic findings result in the series on cynomolgus monkeys (75,000 IU/kg/day, 7 days) is “very minimal histologic changes”; in the series on cynomolgus monkeys (112,500 IU/kg/day, 7 days), “increases in numbers and severity of cortical and medullary tubules containing necrotic or degenerative cells”. Besides, the “nephrotoxicity compared with polymyxin B” value in the series on cynomolgus monkeys is “notably less severe nephrotoxicity; also recorded: markedly less nephrotoxic”; with cynomolgus monkeys (listed as compound 5) it was “reduced renal toxicity”. The volume of distribution result in series [4] (all species) was “greater than blood volume”. The “clearance (CL)” value in series [4] (cynomolgus monkey, in vivo) is given as “less than hepatic blood flow”. Besides, the fraction unbound in the series “Serum protein binding” was about 0.7.

For the origin of these results see patent publication US8343912B2, “Antibiotic compositions for the treatment of gram negative infections” (priority 2008, dated 2013).
